Laboratory results taken from BigSolDB 2.1.

O=C(O)c1ccc(-c2ccccc2)cc1
solubility (mole fraction)
Settings | in benzene | in ethanol | in ethyl acetate | in isobutanol | in isopropanol | in methanol | in methyl acetate | in n-butanol | in n-propanol
293.15 K | 0.00101 | 0.00366 | 0.00654 | 0.00276 | 0.0039 | 0.00255 | 0.0051 | 0.00471 | 0.00426
298.15 K | 0.00123 | 0.00436 | 0.00802 | 0.00349 | 0.00464 | 0.00304 | 0.00593 | 0.00559 | 0.00509
303.15 K | 0.00149 | 0.00512 | 0.00923 | 0.00418 | 0.00563 | 0.0036 | 0.00704 | 0.00658 | 0.00598
308.15 K | 0.00179 | 0.00606 | 0.0108 | 0.0051 | 0.00653 | 0.00424 | 0.00815 | 0.00775 | 0.00685
313.15 K | 0.00214 | 0.0072 | 0.0124 | 0.0063 | 0.00779 | 0.00484 | 0.00942 | 0.00897 | 0.00817
318.15 K | 0.00254 | 0.00831 | 0.0143 | 0.00781 | 0.00952 | 0.00584 | 0.0108 | 0.0105 | 0.00954
323.15 K | 0.003 | 0.00962 | 0.0165 | 0.0093 | 0.0115 | 0.0066 | 0.0126 | 0.012 | 0.0112
328.15 K | 0.00353 | 0.0109 | 0.019 | 0.0111 | 0.0134 | 0.0076 | 0.0145 | 0.0138 | 0.0132
